Experimental data from patent EP0165781A1, “Aromatase inhibiting N-substituted imidazole derivatives” (ELI LILLY AND COMPANY, priority 1984, dated 1985).

Biological target: T1, aromatase (Rattus norvegicus, UniProt P22443)
T1 construct: ovarian microsomes are obtained from rats treated with pregnant mares serum gonadotropin; from tissue; host or cells: ovarian microsomes of rats treated with pregnant mares serum gonadotropin
T1 sequence (P22443 1-508): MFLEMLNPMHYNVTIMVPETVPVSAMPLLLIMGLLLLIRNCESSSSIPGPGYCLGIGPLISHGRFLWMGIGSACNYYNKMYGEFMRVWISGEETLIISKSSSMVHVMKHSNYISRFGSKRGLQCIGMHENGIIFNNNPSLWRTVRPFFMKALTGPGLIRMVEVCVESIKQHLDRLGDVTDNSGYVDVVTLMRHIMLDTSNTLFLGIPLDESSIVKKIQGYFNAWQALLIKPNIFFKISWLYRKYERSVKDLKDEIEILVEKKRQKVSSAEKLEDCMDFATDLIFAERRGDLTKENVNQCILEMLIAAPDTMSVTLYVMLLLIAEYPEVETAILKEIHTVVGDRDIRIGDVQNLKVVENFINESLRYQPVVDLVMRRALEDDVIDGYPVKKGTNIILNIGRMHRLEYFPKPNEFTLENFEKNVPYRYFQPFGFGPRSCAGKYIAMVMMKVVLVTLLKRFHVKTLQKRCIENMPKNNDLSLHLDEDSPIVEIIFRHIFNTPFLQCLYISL
Assay: isolated rat ovarian microsome aromatase inhibition (modified method of Brodie et al.)
Format: biochemical
Settings: rat ovarian microsomes; substrate androstenedione 0.1 µM; [3H]-H2O release; NADPH generating system; read-out: concentration of inhibitor required to produce a 50% inhibition of enzyme activity (EC50)
Description: In this test system, ovarian microsomes are obtained from rats treated with pregnant mares serum gonadotropin. Test compounds are added to reaction vials containing […] 4-androstene-3,17-dione, 100,000 dpm 1,2[^3H]-androstenedione, the microsomes and a NADPH generating system. The concentrations of the inhibitors tested ranged between […]. […] Potency is determined based on the concentration of inhibitor in µM required to produce a 50% inhibition of enzyme activity (EC50) when the concentration of substrate (androstenedione) is 0.1 µM.

CC(=O)N1CCN(c2ccc(OCC3COC(Cn4ccnc4)(c4ccc(Cl)cc4Cl)O3)cc2)CC1 (stereo not shown) [ketoconazole, 1-acetyl-4-[4-([2-(2,4-dichlorophenyl)-2-(1H-imidazol-1-ylmethyl)-1,3-dioxolan-4-yl]methoxy)-phenyl]piperazine] showed an EC50 of 1100 nM.
